Experimental findings from ChEMBL document CHEMBL1201862, “PubChem BioAssay data set” (2004) are described below.

Molecules are shown by their SMILES.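 96-well plates; 48 h exposure; 5 concentrations. Endpoints by linear interpolation between flanking doses. Not reached: highest tested concentration assigned. Here, GI50 denotes the concentration required for 50% inhibition of growth.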 Activity calls are given as the source filed them. Rule as the data show it: active = GI50 up to about 1.1 µM and inactive = higher.

Test in all cases: DTP human tumour cell line panel, 48 h
In assay [1] the test system is 786-0.
Assay [2] relates to COLO 205.
For assay [3], the system named is HCC 2998.
Assay [4] concerns HCT-116.
Assay [5] concerns HCT-15.
Assay [6] has as its system HOP-92.
Assay [7] relates to K562.
Assay [8] concerns MCF7.
Assay [9] deals with MDA-MB-231.
Assay [10] relates to NCI-H23.
In assay [11] the test system is NCI-H522.
For assay [12], the system named is PC-3.
Assay [13] deals with SF-539.
The subject of assay [14] is SK-MEL-5.
Assay [15] relates to U-251.
The test system of assay [16] is UO-31.
In assay [17] the test system is OVCAR-8.
The subject of assay [18] is SN12C.
Assay [19] concerns MDA-N.
Assay [20] relates to Hs-578T.

The term GI50 denotes the concentration that inhibits growth by half. Consider `O=C(c1ccc(/N=C/c2ccccc2O)cc1)c1ccc(/N=C/c2ccccc2O)cc1`, for which the GI50 is > 100 µM (inactive) in assay [1]; 30.1 µM (inactive) in assay [2]; > 100 µM (inactive) in assay [3]; > 100 µM (inactive) in assay [4]; above 100 µM in assay [5]; > 100 µM (inactive) in assay [6]. Further, the GI50 in [7], in [8], in [9], in [10], in [11] and in [12] was > 100 µM (inactive) throughout. The GI50 in assay [13] was > 100 µM (inactive); in [14], 6.11 µM (inactive); in assay [15], > 100 µM (inactive); in assay [16] it was > 100 µM (inactive).
With `Cc1ccc(S(=O)(=O)NC2CCCCO2)cc1` (stereo not drawn), the GI50 in assay [1] was > 100 µM (inactive); in assay [2], > 100 µM (inactive); in assay [3] it was > 100 µM (inactive); in assay [4], > 100 µM (inactive); in assay [5], above 100 µM; in assay [6], > 100 µM (inactive). In addition, the GI50 in assay [7], in assay [10], in assay [11], in assay [17], in assay [13] and in assay [14] was > 100 µM (inactive) each time. The GI50 in [18], in assay [15] and in assay [16] was > 100 µM (inactive) in each case.
With `CCC1(CN(C)C)CC/C(=C\c2ccc(OC)c(OC)c2)C1=O` (stereo not drawn), the GI50 in assay [1] is > 100 µM (inactive); in assay [2], 76.6 µM (inactive); in assay [3] it was > 100 µM (inactive); in assay [4] it was > 74.5 µM (inactive); in [5] it was above 100 µM; in assay [6], > 100 µM (inactive). Also, the GI50 was 57.4 µM (inactive) in [7]; > 100 µM (inactive) in assay [10]; 64.1 µM (inactive) in [11]; > 100 µM (inactive) in assay [17]; > 100 µM (inactive) in assay [13]; > 74.3 µM (inactive) in assay [14]. Also, the GI50 in assay [18], in [15] and in [16] was > 100 µM (inactive) in each case.
Take `O=C(O)c1ccc([N+](=O)[O-])c(P(=O)(O)O)c1`: the GI50 in assay [1] is > 100 µM (inactive); in assay [2], > 100 µM (inactive); in assay [4], > 100 µM (inactive); in [5], above 100 µM; in assay [6], > 100 µM (inactive); in assay [7], > 100 µM (inactive). Further, the GI50 in assay [8], in assay [9], in [19], in assay [10], in assay [17] and in assay [12] was > 100 µM (inactive) in each case. Also, the GI50 in assay [13], in [14], in assay [18], in assay [15] and in [16] was > 100 µM (inactive) each time.
On to `CN(C)C1(C#N)CCC2(CC1)OCCO2`, for which the GI50 was > 100 µM (inactive) in assay [1]; > 100 µM (inactive) in assay [2]; > 100 µM (inactive) in assay [3]; > 100 µM (inactive) in assay [4]; above 100 µM in assay [5]; > 100 µM (inactive) in assay [6]. Also, the GI50 in assay [7], in [10], in assay [11], in assay [17], in [13] and in [14] was > 100 µM (inactive) each time. The GI50 in assay [18], in assay [15] and in [16] was > 100 µM (inactive) in each case.
As for `CC1C(=O)CCC1C(Sc1ccccc1)(Sc1ccccc1)Sc1ccccc1` (stereo not drawn), the GI50 is 22.5 µM (inactive) in assay [1]; 38.2 µM (inactive) in [2]; 20.8 µM (inactive) in assay [3]; 16.1 µM (inactive) in [4]; 30.3 µM in assay [5]; 8.43 µM (inactive) in assay [6]. Also, the GI50 in [7] was 20.5 µM (inactive); in assay [10] it was 22.5 µM (inactive); in assay [11], 11.1 µM (inactive); in [17] it was 24.3 µM (inactive); in assay [13], 18.7 µM (inactive); in [14] it was 16.9 µM (inactive). In addition, the GI50 in assay [18] was 21.1 µM (inactive); in [15], 33.8 µM (inactive); in assay [16] it was 1.32 µM (inactive).
In the case of `COC(=O)C1=C2SCc3ccc(cc3)CSC3=C(C(=O)OC)SC(=C(S2)S1)S3`, the GI50 in assay [1] is 96.6 µM (inactive); in [2], > 100 µM (inactive); in assay [3], > 100 µM (inactive); in assay [4], > 100 µM (inactive); in assay [7], 43.6 µM (inactive); in [8], > 100 µM (inactive). The GI50 in assay [9] is > 100 µM (inactive); in assay [19], 74.6 µM (inactive); in assay [12] it was > 100 µM (inactive); in assay [14] it was > 100 µM (inactive); in assay [18] it was > 100 µM (inactive); in assay [15], > 100 µM (inactive). In addition, the GI50 in [16] was > 100 µM (inactive).
In the case of `Cc1ccc(C)c(NC(=O)c2cccc([N+](=O)[O-])c2O)c1`, the GI50 in assay [1] was 44.1 µM (inactive); in assay [2] it was 17.3 µM (inactive); in assay [3], 28.3 µM (inactive); in [4], 23.1 µM (inactive); in assay [5], 28.8 µM; in assay [6], 12.7 µM (inactive). The GI50 is > 100 µM (inactive) in assay [7]; 16.3 µM (inactive) in assay [10]; 23.3 µM (inactive) in assay [11]; 32.1 µM (inactive) in assay [17]; 32.3 µM (inactive) in assay [13]; 5.9 µM (inactive) in assay [14]. In addition, the GI50 was 27.2 µM (inactive) in assay [18], 23.9 µM (inactive) in [15] and 16.5 µM (inactive) in assay [16].
Turning to `Cc1cccc2c1C/C(=C\c1cccc(C)c1C(=O)O)C2=O`, the GI50 in assay [1] is > 100 µM (inactive); in assay [2] it was 82.6 µM (inactive); in assay [3], > 100 µM (inactive); in [4] it was > 100 µM (inactive); in assay [5], above 100 µM; in assay [6], > 100 µM (inactive). Also, the GI50 in assay [20], in assay [7], in assay [8], in assay [10], in assay [11] and in assay [17] was > 100 µM (inactive) throughout. Also, the GI50 in assay [12] is > 100 µM (inactive); in assay [13], > 100 µM (inactive); in assay [14] it was 71.6 µM (inactive); in [18], > 100 µM (inactive); in assay [15], > 100 µM (inactive); in [16] it was > 100 µM (inactive).
Take `O=C(CCc1nnc2s/c(=C\c3ccccc3[N+](=O)[O-])c(=O)n12)Nc1cc(Cl)c(Cl)cc1Cl`: the GI50 was 17.1 µM (inactive) in [1]; 83.4 µM (inactive) in [2]; 38.5 µM (inactive) in [3]; 17.5 µM (inactive) in assay [4]; 40.4 µM in assay [5]; 18.7 µM (inactive) in [6]. The GI50 was 22 µM (inactive) in [7]; 33.2 µM (inactive) in assay [10]; 38.3 µM (inactive) in assay [11]; 25.9 µM (inactive) in assay [17]; 21.1 µM (inactive) in assay [13]; 34.1 µM (inactive) in [14]. For the same compound, the GI50 in assay [18] is 24.6 µM (inactive); in [15], 16.9 µM (inactive); in [16], 31.6 µM (inactive).
As for `COc1cc2c(cc1OCCCC(=O)Nc1cc(C(=O)Nc3cc(C(=O)NCCCN(C)C)n(C)n3)n(C)n1)N=CC1CCCN1C2=O` (stereo not drawn), the GI50 in assay [1] is 16.3 µM (inactive); in assay [2] it was 13.5 µM (inactive); in assay [3], 17.3 µM (inactive); in assay [4], 16 µM (inactive); in [5], 16.1 µM; in assay [6], 19.1 µM (inactive). Moreover, the GI50 in assay [7] was 14.6 µM (inactive); in [8] it was 12.6 µM (inactive); in [9] it was 20 µM (inactive); in [19] it was 16.6 µM (inactive); in assay [10], 17.2 µM (inactive); in assay [11], 7 µM (inactive). The GI50 is 22 µM (inactive) in assay [17]; 31.8 µM (inactive) in assay [12]; 21.7 µM (inactive) in [13]; 15 µM (inactive) in assay [14]; 16.1 µM (inactive) in assay [18]; 17 µM (inactive) in assay [15]. The GI50 in [16] is 16.7 µM (inactive).
On to `CC(C)NC(=O)O/N=C1\CCC2[C@@H]3CC=C4C[C@@H](OC(=O)NC(C)C)CC[C@]4(C)C3CC[C@]12C` (stereo partly drawn), for which the GI50 was 1.61 µM (inactive) in assay [1]; 0.359 µM (active) in [2]; 2.14 µM (inactive) in assay [3]; 1.43 µM (inactive) in [4]; 1.43 µM in [5]; 2.08 µM (inactive) in [6]. Moreover, the GI50 in assay [7] is 0.953 µM (active); in [10], 1.18 µM (inactive); in assay [11], 1.53 µM (inactive); in assay [17], 1.75 µM (inactive); in [13] it was 2.4 µM (inactive); in [14] it was 0.425 µM (active). Besides, the GI50 in assay [18] was 1.57 µM (inactive); in [15], 1.38 µM (inactive); in [16] it was 1.01 µM (active).
